The source of these data is patent US4971980A, “Pharmacologically active benzimidazole derivatives” (Dompe Farmaceutici S.p.A., priority 1988, dated 1990).

The subject of data set [1] is mortality induced by histamine. As to the kind of experiment: Effect on the mortality induced by histamine. As to conditions: Cavia porcellus, po; guinea pigs, os, 60 minutes before 1,25 mg/kg i.v. histamine dihydrochloride; parentheses: range. The class given is in vivo, male albino guinea pigs (Dunkin-Hartley). As for the experimental part: The method described by Romer D. et al. (Med.Welt, 17, 791, 1966) was followed and the tests were carried out on male albino guinea pigs (Dunkin-Hartley), weighing 350-450 g, which were kept in cages with a grid floor, on an empty stomach for 24 hrs with water ad libitum.
The compounds under examination were dissolved in 0,5% carboxymethylcellolose and orally administered to the animals; 60 minutes later the same animals were intravenously treated with 1,25 mg/kg of histamine dihydrochloride in saline solution.
It was evaluated ED50 which corresponds to the amount of the compound able to inhibit 50% of the mortality induced by histamine: the estimation of ED50 was carried out applying the `probit` method (Finney D. J., Statistical methods in biological assay, pg 512, 1957).

The target in data set [2] is T1, H1 histaminergic receptors (Rattus norvegicus, UniProt P31390).
T1 construct: in homogenates of rat brain; from tissue; host or cells: rat whole brain homogenate
T1 sequence (P31390 whole entry): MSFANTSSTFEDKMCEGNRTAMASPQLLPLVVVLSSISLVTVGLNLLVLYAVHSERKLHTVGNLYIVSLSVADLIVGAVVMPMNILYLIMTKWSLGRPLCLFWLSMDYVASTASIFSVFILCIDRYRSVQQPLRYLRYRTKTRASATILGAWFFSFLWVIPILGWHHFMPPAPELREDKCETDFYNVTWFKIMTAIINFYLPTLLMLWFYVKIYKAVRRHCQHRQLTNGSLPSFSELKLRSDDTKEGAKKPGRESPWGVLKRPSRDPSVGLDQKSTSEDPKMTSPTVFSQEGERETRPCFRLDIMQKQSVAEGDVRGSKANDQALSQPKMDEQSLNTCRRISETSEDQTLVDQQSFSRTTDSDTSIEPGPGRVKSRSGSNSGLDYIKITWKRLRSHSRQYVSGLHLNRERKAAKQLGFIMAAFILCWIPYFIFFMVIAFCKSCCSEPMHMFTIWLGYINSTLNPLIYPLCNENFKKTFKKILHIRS
Nature of the data set: Affinity towards H1 histaminergic receptors ([3H]Mepyramine displacement). As to conditions: homogenates of rat brain, 25° C., 15 minutes, pH 7.5, read-out: H1-receptor binding Ki. On the procedure: The incubation was performed at 25° C. for 15 minutes, in a final volume of 1 ml of 50 mM Na/K phosphate buffer, pH 7.5, in the presence of […][^3 H]Mepyramine and 1.5 mg of cerebral protein.
The test compounds were dissolved in phosphate buffer or dimethylsulfoxide (DMSO), the final concentration of DMSO was 0.5%. Incubation was terminated by filtration through glass fiber GF/B filters pre-soaked with 0.1% polyethylenimine (PEI); the radioactivity trapped by filters was counted by liquid scintillation.

Data set [3] deals with sleeping time induced by sodium pentobarbital. Nature of the data set: Effect on the sleeping time interval induced by pentobarbital. The class given is in vivo, male mice Swiss-Nos. The arrangement: key: IN: inactive at the dose of 100 mg/kg i.p. Conditions: mice, i.p., 30 minutes before 40 mg/kg i.p. sodium pentobarbital; ED100 = doubles the sleeping time vs control. As for the experimental part:
The tests were carried out on male mice Swiss-Nos (Nossan, Correzzana, Milano) weighing 20-24 g, on an empty stomach for 18 hrs, according to the method described by Turner (Screening Methods in Pharmacology, Acad. Press, pg 70,1965). The sleep was induced by intraperitoneal administration of 40 mg/kg sodium pentobarbital. The narcosis start was considered from the moment when the animal, lying on its back, lost its straightening reflex. The narcosis end was considered from the moment when the animal recovered such reflex. The carrier or the compounds under examination were intraperitoneally administered 30 minutes before the pentobarbital administration. The resulting data are expressed as sleeping time increase per cent of the treated animals in comparison with the controls.

Data set [4] in a line: Acute toxicity (LD50). As to conditions: mouse, in vivo, ip; mice, 14 days observation. As for the experimental part: The Letal Dose50 (LD50) was evaluated on mice using Swiss-Nos (Nossan, Correzzana, Milano) mice weighing 18-20 g each. The animals, divided into groups of 10 animals each (5M +5F), were on an empty stomach for 18 hrs, with water ad libitum, and kept in cages with grid floor. The compounds (I) were dissolved in water or suspended in 0.5% carboxymethylcellulose and intraperitoneally administered to the animals (10 ml/kg). The mortality occured in the tested animals within the following 6 hours was noted down. At the expiry of the 6th hour, the animals were allowed to eat up to the end of the experimentation which lasted 14 days. During this period all the toxic symptoms and the mortality occuring were noted.
The animals which died during the test period and those which were sacrificed at the end of the same, underwent autopsy for a macroscopic examination of their main organs. The experimental data were statistically compared with the X^2 method and LD50 was extrapolated by the `probit` method.

On to `CCOCCn1c(CCCN(C)C)nc2ccccc21` [Example 1, 1-(2-Ethoxyethyl)-2-(3-dimethylaminopropyl)benzimidazole], for which the ED50 in data set [1] is 0.00454 mg/kg. The Ki in data set [2] was 5.8 nM. Besides, in data set [3], the “sleeping time % increase ED100” value is listed as “IN”. The molecule also displayed an LD50 at 336 h in data set [4] of 250 mg/kg.

Consider `CN(C)CCCc1nc2ccccc2n1Cc1ccc(F)cc1` [Example 6, 1-(4-fluorobenzyl)-2-(3-dimethylaminopropyl)benzimidazole], for which the ED50 in data set [1] turned out to be 0.026 mg/kg. Moreover, in data set [2], the Ki is 6.1 nM. The “sleeping time % increase ED100” value in data set [3] is “IN”. This molecule came in with an LD50 at 336 h in data set [4] greater than 100 mg/kg.

Consider `CCOCCn1c(CCN(C)C)nc2ccccc21` [Example 9, 1-(2-Ethoxyethyl)-2-(2-dimethylaminoethyl)benzimidazole], for which, in data set [1], the ED50 was 0.00501 mg/kg. In data set [2], the inhibition constant Ki was found to be 6.1 nM. The “sleeping time % increase ED100” value in data set [3] is given as “IN”. This molecule also displayed an LD50 at 336 h in data set [4] greater than 100 mg/kg.

Consider `CC(C)(C)c1ccc(C(O)CCCN2CCC(C(O)(c3ccccc3)c3ccccc3)CC2)cc1` (centres unmarked) [Terfenadine, reference compound], for which the ED50 in data set [1] worked out at 0.179 mg/kg. In data set [4], the LD50 at 336 h is greater than 100 mg/kg.
